Results as given in US8859596B2, “Compounds as cannabinoid receptor ligands” (priority 2008, dated 2014).
Read-outs that look alike come from different tables or passages of the source.

Assays:
human CB2 receptors = human CB2 receptors (Homo sapiens (Human), UniProt P34972); assay: human CB2 radioligand binding assay ([3H]CP 55,940 competition)
Method: (§1) The CB1 and CB2 radioligand binding assays described herein are utilized to ascertain the affinity of compounds of the present application for binding to CB2 relative to CB1 receptors.
HEK293 cells stably expressing human CB2 receptors were grown until a confluent monolayer was formed. Briefly, the cells were harvested and homogenized in TE buffer (50 mM Tris-HCl, 1 mM MgCl2, and 1 mM EDTA) using a polytron for 2×10 second bursts in the presence of protease inhibitors, followed by centrifugation at 45,000×g for 20 minutes. The final membrane pellet was re-homogenized in storage buffer (50 mM Tris-HCl, 1 mM MgCl2, and 1 mM EDTA and 10% sucrose) and frozen at −78° C. until used. Saturation binding reactions were initiated by the addition of membrane preparation (protein concentration of 5 μg/well for human CB2) into wells of a deep well plate containing [^3H]CP 55,940 (120 Ci/mmol, a nonselective CB agonist commercially available from Tocris) in assay buffer (50 mM Tris, 2.5 mM EDTA, 5 mM MgCl2, and 0.5 mg/mL fatty acid free BSA, pH 7.4). After 90 min incubation at 30° C., binding reaction was terminated by the addition of 300 μL/well of cold assay buffer followed by rapid vacuum filtration through a UniFilter-96 GF/C filter plates (pre-soaked in 1 mg/mL BSA for 2 hours). The bound activity was counted in a TopCount using Microscint-20. Saturation experiments were conducted with twelve concentrations of [^3H]CP 55,940 ranging from 0.01 to 8 nM. Competition experiments were conducted with 0.5 nM [^3H]CP 55,940 and five concentrations (0.01 nM to 10 μM) of displacing ligands. The addition of 10 μM unlabeled CP 55,940 (Tocris, Ellisville, Mo.) was used to assess nonspecific binding.

rat CB2 [1] = biological target: T1, rat CB2 (Rattus norvegicus (Rat), UniProt Q9QZN9); assay: CB2 cyclase functional assay (HitHunter cAMP); type: cell-based; settings: HEK cells, forskolin 18 μM
Method: (§2) The cyclase functional assays were performed using the HitHunter™ cAMP assay kit from DiscoveRx (Fremont, Calif.) according to vendor's protocol. Briefly, HEK cells expressing CB2 or CB1 receptors (rat or human) were detached using cell dissociation buffer (Invitrogen, Carlsbad, Calif.), dispersed and placed in suspension at 10,000 cells per well in 96 well plates prior to the assay. Cell suspensions were incubated at 37° C. for 20 min with variable concentrations of test ligands and or 10 μM CP 55,940-positive control in the presence of a fixed concentration of forskolin (18 μM for rat CB2 and 37 μM for rat CB1) in Dulbescco's phosphate-buffered saline (Invitrogen, Carlsbad, Calif.) supplemented with bovine serum albumin (0.01% final concentration). The reactions were terminated by the addition of lysis buffer and the luminescence was detected following the procedure according to the manufacturer's instructions. EC50 values were calculated using sigmoidal dose-response curve fitting from Prism (GraphPad).

rat CB2 [2] = biological target: T1, rat CB2; assay: rat CB2 radioligand binding assay ([3H]CP 55,940 competition)
Method: as §1
HEK293 cells stably expressing rat CB2 receptors were grown until a confluent monolayer was formed. Briefly, the cells were harvested and homogenized in TE buffer (50 mM Tris-HCl, 1 mM MgCl2, and 1 mM EDTA) using a polytron for 2×10 second bursts in the presence of protease inhibitors, followed by centrifugation at 45,000×g for 20 minutes. The final membrane pellet was re-homogenized in storage buffer (50 mM Tris-HCl, 1 mM MgCl2, and 1 mM EDTA and 10% sucrose) and frozen at −78° C. until used. Saturation binding reactions were initiated by the addition of membrane preparation (protein concentration of 20 μg/well for rat CB2) into wells of a deep well plate containing [^3H]CP 55,940 (120 Ci/mmol, a nonselective CB agonist commercially available from Tocris) in assay buffer (50 mM Tris, 2.5 mM EDTA, 5 mM MgCl2, and 0.5 mg/mL fatty acid free BSA, pH 7.4). After 45 min incubation at 30° C., binding reaction was terminated by the addition of 300 μl/well of cold assay buffer followed by rapid vacuum filtration through a UniFilter-96 GF/C filter plates (pre-soaked in 1 mg/mL BSA for 2 hours). The bound activity was counted in a TopCount using Microscint-20. Saturation experiments were conducted with twelve concentrations of [^3H]CP 55,940 ranging from 0.01 to 8 nM. Competition experiments were conducted with 0.5 nM [^3H]CP 55,940 and five concentrations of displacing ligands selected from the range of 0.01 nM to […] addition of 10 μM unlabeled CP 55,940 (Tocris, Ellisville, Mo.) was used to assess nonspecific binding.

rat CB1 = rat CB1 (Rattus norvegicus (Rat), UniProt P20272); assay: CB1 cyclase functional assay (HitHunter cAMP); type: cell-based; settings: HEK cells, forskolin 37 μM; read-out: rCB1 cyclase (EC50)
Method: as §2

[3] = HEK293 membranes, 0.5 nM [3H]CP 55,940, read-out: human CB2 (Ki)
[4] = HEK293 membranes, 0.5 nM [3H]CP 55,940, read-out: rat CB2 (Ki)

T1 sequence (Q9QZN9 whole entry): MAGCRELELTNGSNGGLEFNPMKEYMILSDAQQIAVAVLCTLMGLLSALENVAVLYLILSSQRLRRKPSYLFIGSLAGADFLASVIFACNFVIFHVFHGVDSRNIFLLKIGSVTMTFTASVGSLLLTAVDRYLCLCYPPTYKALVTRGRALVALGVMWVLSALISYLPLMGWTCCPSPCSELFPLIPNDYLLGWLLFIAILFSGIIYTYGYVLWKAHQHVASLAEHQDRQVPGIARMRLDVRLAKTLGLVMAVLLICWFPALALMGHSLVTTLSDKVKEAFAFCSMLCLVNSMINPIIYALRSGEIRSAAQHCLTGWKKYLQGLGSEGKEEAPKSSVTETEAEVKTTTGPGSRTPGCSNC
human CB2 receptors, sequence (P34972 whole entry): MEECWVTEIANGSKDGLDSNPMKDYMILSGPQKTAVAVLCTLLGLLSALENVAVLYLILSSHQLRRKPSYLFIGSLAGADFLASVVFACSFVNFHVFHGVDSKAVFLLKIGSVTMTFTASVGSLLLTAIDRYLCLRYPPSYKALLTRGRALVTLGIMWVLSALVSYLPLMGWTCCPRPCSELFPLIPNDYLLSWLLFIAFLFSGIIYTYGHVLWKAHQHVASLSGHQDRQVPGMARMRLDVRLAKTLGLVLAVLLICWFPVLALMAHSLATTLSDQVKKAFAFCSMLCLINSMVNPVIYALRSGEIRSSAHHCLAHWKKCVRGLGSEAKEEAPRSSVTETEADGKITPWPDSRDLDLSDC

CCCCn1nc(C(C)(C)C)s/c1=N\C(=O)c1cc(C(F)(F)F)ccc1ONC(C)(C)C [Example 34, 2-[(tert-butylamino)oxy]-N-[(2Z)-3-butyl-5-tert-butyl-1,3,4-thiadiazol-2(3H)-ylidene]-5-(trifluoromethyl)benzamide]
Ki (human CB2 receptors; [3]): 11 nM | EC50 (rat CB2 [1]): 0.43 nM | Ki (rat CB2 [2]; [4]): 1.9 nM | EC50 (rat CB1): > 27000 nM

CCCCn1nc(C(C)(C)C)s/c1=N\C(=O)c1cc(C(F)(F)F)ccc1ONC(=O)OC(C)(C)C [Example 141, tert-butyl 2-({[(2Z)-3-butyl-5-tert-butyl-1,3,4-thiadiazol-2(3H)-ylidene]amino}carbonyl)-4-(trifluoromethyl)phenoxycarbamate]
Ki (human CB2 receptors): 0.32 nM | EC50 (rat CB2 [1]): 1.12 nM | Ki (rat CB2 [2]): 2.3 nM | EC50 (rat CB1): 273 nM

Cn1c(C(C)(C)C)c/c(=N\C(=O)c2cc(C(F)(F)F)ccc2ONC(C)(C)C)n1C[C@H]1CCCO1 [Example 142, 2-[(tert-butylamino)oxy]-N-{(3E)-5-tert-butyl-1-methyl-2-[(2R)-tetrahydrofuran-2-ylmethyl]-1,2-dihydro-3H-pyrazol-3-ylidene}-5-(trifluoromethyl)benzamide]
Ki (human CB2 receptors): 24 nM | Ki (rat CB2 [2]): 9.4 nM | EC50 (rat CB1): > 27000 nM

CCCCn1nc(C(C)(C)C)s/c1=N\C(=O)c1cc(C(F)(F)F)ccc1ONC(C)C [Example 144, N-[(2Z)-3-butyl-5-tert-butyl-1,3,4-thiadiazol-2(3H)-ylidene]-2-[(isopropylamino)oxy]-5-(trifluoromethyl)benzamide]
Ki (human CB2 receptors; [3]): 0.6 nM | EC50 (rat CB2 [1]): 0.22 nM | Ki (rat CB2 [2]; [4]): 0.8 nM | EC50 (rat CB1): 415 nM

CC(C)(C)NOc1ccc(C(F)(F)F)cc1C(=O)/N=c1\sc(C(C)(C)C)nn1CCCC#N [Example 151, 2-[(tert-butylamino)oxy]-N-[(2Z)-5-tert-butyl-3-(3-cyanopropyl)-1,3,4-thiadiazol-2(3H)-ylidene]-5-(trifluoromethyl)benzamide]
Ki (human CB2 receptors; [3]): 4.3 nM | EC50 (rat CB2 [1]): 0.13 nM | Ki (rat CB2 [2]; [4]): 1.2 nM | EC50 (rat CB1): 938 nM

CC(C)(C)NOc1ccc(C(F)(F)F)cc1C(=O)/N=c1\sc(C(C)(C)C)nn1C[C@H]1CCCO1 [Example 153, 2-[(tert-butylamino)oxy]-N-[(2Z)-5-tert-butyl-3-[(2R)-tetrahydrofuran-2-ylmethyl]-1,3,4-thiadiazol-2(3H)-ylidene]-5-(trifluoromethyl)benzamide]
Ki (human CB2 receptors; [3]): 10 nM | EC50 (rat CB2 [1]): 0.24 nM | Ki (rat CB2 [2]; [4]): 3.2 nM | EC50 (rat CB1): > 27000 nM

CCCCn1/c(=N/C(=O)c2cc(C(F)(F)F)ccc2O/N=C(\C)C(F)(F)F)cc(C(C)(C)C)n1C [Example 194, N-[(3E)-2-butyl-5-tert-butyl-1-methyl-1,2-dihydro-3H-pyrazol-3-ylidene]-5-(trifluoromethyl)-2-({[(1E)-2,2,2-trifluoro-1-methylethylidene]amino}oxy)benzamide]
Ki (human CB2 receptors; [3]): 12 nM | Ki (rat CB2 [2]; [4]): 40 nM

CCCCn1nc(C(C)(C)C)s/c1=N\C(=O)c1cc(C(F)(F)F)ccc1ON=C(N)c1ccccn1 [Example 196, 2-({[amino(pyridin-2-yl)methylene]amino}oxy)-N-[(2Z)-3-butyl-5-tert-butyl-1,3,4-thiadiazol-2(3H)-ylidene]-5-(trifluoromethyl)benzamide]
Ki (human CB2 receptors; [3]): 18 nM | Ki (rat CB2 [2]; [4]): 4.1 nM

CCCCn1nc(C(C)(C)C)s/c1=N\C(=O)c1cc(C(F)(F)F)ccc1NNC(=O)c1cccnc1 [Example 197, N-[(2Z)-3-butyl-5-tert-butyl-1,3,4-thiadiazol-2(3H)-ylidene]-2-[2-(pyridin-3-ylcarbonyl)hydrazino]-5-(trifluoromethyl)benzamide]
Ki (human CB2 receptors; [3]): 1.1 nM | Ki (rat CB2 [2]; [4]): 0.7 nM

CCCCn1/c(=N/C(=O)c2cc(C(F)(F)F)ccc2NNC(=O)C(C)(C)C)cc(C(C)(C)C)n1C [Example 198, N-[(3E)-2-butyl-5-tert-butyl-1-methyl-1,2-dihydro-3H-pyrazol-3-ylidene]-2-[2-(2,2-dimethylpropanoyl)hydrazino]-5-(trifluoromethyl)benzamide]
Ki (human CB2 receptors; [3]): 0.4 nM | Ki (rat CB2 [2]; [4]): 1.7 nM

CCCCn1/c(=N/C(=O)c2cc(C(F)(F)F)ccc2NNC(=O)c2cccnc2)cc(C(C)(C)C)n1C [Example 199, N-[(3E)-2-butyl-5-tert-butyl-1-methyl-1,2-dihydro-3H-pyrazol-3-ylidene]-2-[2-(pyridin-3-ylcarbonyl)hydrazino]-5-(trifluoromethyl)benzamide]
Ki (human CB2 receptors; [3]): 2.5 nM | Ki (rat CB2 [2]; [4]): 2.2 nM

CCCCn1/c(=N/C(=O)c2cc(C(F)(F)F)ccc2NNC(=O)c2ccncc2)cc(C(C)(C)C)n1C [Example 200, N-[(3E)-2-butyl-5-tert-butyl-1-methyl-1,2-dihydro-3H-pyrazol-3-ylidene]-2-(2-isonicotinoylhydrazino)-5-(trifluoromethyl)benzamide]
Ki (human CB2 receptors; [3]): 0.7 nM | Ki (rat CB2 [2]; [4]): 1.3 nM

CCCCn1nc(C(C)(C)C)s/c1=N\C(=O)c1cc(C(F)(F)F)ccc1NNC(N)=O [Example 201, 2-[2-({[(2Z)-3-butyl-5-tert-butyl-1,3,4-thiadiazol-2(3H)-ylidene]amino}carbonyl)-4-(trifluoromethyl)phenyl]hydrazinecarboxamide]
Ki (human CB2 receptors; [3]): 47 nM | Ki (rat CB2 [2]; [4]): 5.2 nM

CCCCn1nc(C(C)(C)C)s/c1=N\C(=O)c1cc(C(F)(F)F)ccc1NNCc1ccccc1 [Example 202, 2-(2-benzylhydrazino)-N-[(2Z)-3-butyl-5-tert-butyl-1,3,4-thiadiazol-2(3H)-ylidene]-5-(trifluoromethyl)benzamide]
Ki (human CB2 receptors; [3]): 43 nM | Ki (rat CB2 [2]; [4]): 36 nM

CCCCn1nc(C(C)(C)C)s/c1=N\C(=O)c1cc(C(F)(F)F)ccc1ON=C(N)c1ccncc1 [Example 203, 2-({[amino(pyridin-4-yl)methylene]amino}oxy)-N-[(2Z)-3-butyl-5-tert-butyl-1,3,4-thiadiazol-2(3H)-ylidene]-5-(trifluoromethyl)benzamide]
Ki (human CB2 receptors; [3]): 68 nM | Ki (rat CB2 [2]; [4]): 33 nM

CCCCn1nc(C(C)(C)C)s/c1=N\C(=O)c1cc(C(F)(F)F)ccc1ON=C(N)c1cccnc1 [Example 204, 2-({[amino(pyridin-3-yl)methylene]amino}oxy)-N-[(2Z)-3-butyl-5-tert-butyl-1,3,4-thiadiazol-2(3H)-ylidene]-5-(trifluoromethyl)benzamide]
Ki (human CB2 receptors; [3]): 87 nM | Ki (rat CB2 [2]; [4]): 13 nM

CCCCn1nc(C(C)(C)C)s/c1=N\C(=O)c1cc(C(F)(F)F)ccc1N(/N=C/c1cccc(C)n1)C(=O)OC(C)(C)C [Example 205, tert-butyl (2E)-1-[2-({[(2Z)-3-butyl-5-tert-butyl-1,3,4-thiadiazol-2(3H)-ylidene]amino}carbonyl)-4-(trifluoromethyl)phenyl]-2-[(6-methylpyridin-2-yl)methylene]hydrazinecarboxylate]
Ki (human CB2 receptors): 44 nM | Ki (rat CB2 [2]): 43 nM
